Measured values: paper PMC8160793, “Potent Antimicrobial and Antibiofilm Activities of Feleucin-K3 Analogs Modified by α-(4-Pentenyl)-Ala against Multidrug-Resistant Bacteria” (Biomolecules, 2021)
Converted amounts (≈) assume the structure as drawn. Square brackets hold non-standard residues; d marks the D form. Peptide text beside a SMILES is read from it. ξ: configuration not given here. ξαMeGly(pent-4-enyl) = C=CCCCC(C)(N)C(=O)O

Tests used:
A. baumannii ATCC 19606 = assay type: cell-based, Acinetobacter baumannii; conditions: ATCC 19606, 24 h
Protocol: (§1) The antibiofilm activity of the peptides was determined according to the previously described methods. Strains (final concentration of 5 × 10^5 CFU/mL) and peptides (4–128 μg/mL) were incubated for 24 h at 37 °C. Biofilm cells were cleaned with 0.01-M PBS and fixed with methanol. Crystal violet (0.1%, HopeBiol, Qingdao, China) was used to stain the biofilm cells for 10 min. After washing with water, 95% ethanol was finally added, and the optical density at 595 nm was measured with a microplate reader (Flex Station 3; Laguna Hills, CA, USA).

E. coli ATCC 25922 [1] = assay type: cell-based; conditions: ATCC 25922, 18 h
Protocol: (§2) The minimum inhibitory concentration (MIC) of the Feleucin-K3 analogs was tested by the broth microdilution method. Sensitive bacteria and drug-resistant bacteria were diluted to 1 × 10^6 CFU/mL, according to the McFarland standards. Bacterial suspension and peptide solutions (8–128 μg/mL) were incubated at 37 °C for 18 h. The minimum concentration without obvious bacterial growth was the MIC of the peptides. The stability of the analogs in a physiological salt environment was also investigated. In brief, salt powder (450-mM NaCl) was dissolved in deionized water, and the following investigational steps were the same as those described before. The above steps were repeated several times, until the same value was obtained three times.

mouse RBCs = experiment: Hemolytic activity; assay type: cell-based; conditions: equal volume of 8% RBC suspension, 1 h, OD 490 nm, Triton X-100 positive control; for hemolysis rate at 128 µg/mL: peptide 128 µg/mL (maximum concentration)
Protocol: Mouse red blood cells (RBCs) were collected using the eyeball removal method to investigate the hemolytic activity of the Feleucin-K3 analogs. Then, these analogs were incubated with the same volume of 8% RBC suspension for 1 h. After centrifugation for 10 min, 100 μL of supernatant was withdrawn, and the optical density at 490 nm was detected. The hemolysis rate of the cells treated with 0.1% Triton X-100 (Solarbio, Beijing, China) was used as a positive control, and PBS was used as a negative control.

E. coli ATCC 25922 [2] = assay type: cell-based; conditions: ATCC 25922, 24 h
Protocol: as §1

S. aureus ATCC 25923 [3] = assay type: cell-based, Staphylococcus aureus; conditions: ATCC 25923, 24 h
Protocol: as §1

MRSA ATCC 33591 [4] = assay type: cell-based, Staphylococcus aureus; conditions: ATCC 33591, 24 h
Protocol: as §1

A. baumannii 9331 = assay type: cell-based, Acinetobacter baumannii; conditions: 9331, 18 h
Protocol: as §2

A. baumannii 91869 = assay type: cell-based, Acinetobacter baumannii; conditions: 91869, 18 h
Protocol: as §2

A. baumannii 98110 = assay type: cell-based, Acinetobacter baumannii; conditions: 98110, 18 h
Protocol: as §2

A. baumannii 8309 = assay type: cell-based, Acinetobacter baumannii; conditions: 8309, 18 h
Protocol: as §2

A. baumannii 9236 = assay type: cell-based, Acinetobacter baumannii; conditions: 9236, 18 h
Protocol: as §2

A. baumannii 9896 = assay type: cell-based, Acinetobacter baumannii; conditions: 9896, 18 h
Protocol: as §2

A. baumannii 822144 = assay type: cell-based, Acinetobacter baumannii; conditions: 822144, 18 h
Protocol: as §2

A. baumannii 9234 = assay type: cell-based, Acinetobacter baumannii; conditions: 9234, 18 h
Protocol: as §2

A. baumannii 9336 = assay type: cell-based, Acinetobacter baumannii; conditions: 9336, 18 h
Protocol: as §2

P. aeruginosa ATCC 27853 = assay type: cell-based, Pseudomonas aeruginosa; conditions: ATCC 27853, 18 h
Protocol: as §2

P.aeruginosa ATCC 27853 = assay type: cell-based, Pseudomonas aeruginosa; conditions: ATCC 27853, 24 h
Protocol: as §1

MRSA 74 = assay type: cell-based, Staphylococcus aureus; conditions: 74, 18 h
Protocol: as §2

MRSA 936 = assay type: cell-based, Staphylococcus aureus; conditions: 936, 18 h
Protocol: as §2

MRSA 75 = assay type: cell-based, Staphylococcus aureus; conditions: 75, 18 h
Protocol: as §2

S. aureus ATCC 25923 [5] = assay type: cell-based, Staphylococcus aureus; conditions: ATCC 25923, 18 h
Protocol: as §2

MRSA 51 = assay type: cell-based, Staphylococcus aureus; conditions: 51, 18 h
Protocol: as §2

MRSA ATCC 33591 [6] = assay type: cell-based, Staphylococcus aureus; conditions: ATCC 33591, 18 h
Protocol: as §2

MRSA 71 = assay type: cell-based, Staphylococcus aureus; conditions: 71, 18 h
Protocol: as §2

S. aureus 794 = assay type: cell-based, Staphylococcus aureus; conditions: 794, 18 h
Protocol: as §2

MRSA 23 = assay type: cell-based, Staphylococcus aureus; conditions: 23, 18 h
Protocol: as §2

MRSA 52 = assay type: cell-based, Staphylococcus aureus; conditions: 52, 18 h
Protocol: as §2

MRSA 54 = assay type: cell-based, Staphylococcus aureus; conditions: 54, 18 h
Protocol: as §2

S. aureus 725 = assay type: cell-based, Staphylococcus aureus; conditions: 725, 18 h
Protocol: as §2

MRSA 113 = assay type: cell-based, Staphylococcus aureus; conditions: 113, 18 h
Protocol: as §2

MRSA 48 = assay type: cell-based, Staphylococcus aureus; conditions: 48, 18 h
Protocol: as §2

Compound	MBIC50, A. baumannii ATCC 19606 (A. baumannii ATCC 19606) [µg/mL]	MBIC90, A. baumannii ATCC 19606 (A. baumannii ATCC 19606) [µg/mL]	MIC, E. coli ATCC 25922 (E. coli ATCC 25922 [1]) [µg/mL]	hemolysis rate at 128 µg/mL (mouse RBCs)	MBIC50, E. coli ATCC 25922 (E. coli ATCC 25922 [2]) [µg/mL]	MBIC90, E. coli ATCC 25922 (E. coli ATCC 25922 [2]) [µg/mL]	MBIC50, S. aureus ATCC 25923 (S. aureus ATCC 25923 [3]) [µg/mL]	MBIC90, S. aureus ATCC 25923 (S. aureus ATCC 25923 [3]) [µg/mL]	MBIC50, MRSA ATCC 33591 (MRSA ATCC 33591 [4]) [µg/mL]	MBIC90, MRSA ATCC 33591 (MRSA ATCC 33591 [4]) [µg/mL]	MIC, A. baumannii 9331 (A. baumannii 9331) [µg/mL]	MIC, A. baumannii 91869 (A. baumannii 91869) [µg/mL]	MIC, A. baumannii 98110 (A. baumannii 98110) [µg/mL]	MIC, A. baumannii 8309 (A. baumannii 8309) [µg/mL]	MIC, A. baumannii 9236 (A. baumannii 9236) [µg/mL]	MIC, A. baumannii 9896 (A. baumannii 9896) [µg/mL]	MIC, A. baumannii 822144 (A. baumannii 822144) [µg/mL]	MIC, A. baumannii 9234 (A. baumannii 9234) [µg/mL]	MIC, A. baumannii 9336 (A. baumannii 9336) [µg/mL]	MIC, P. aeruginosa ATCC 27853 (P. aeruginosa ATCC 27853) [µg/mL]	further results
C=CCCCC(C)(N)C(=O)N[C@@H](CC(C)C)C(=O)N[C@@H](CCCCN)C(=O)N[C@@H](CC(C)C)C(=O)N[C@@H](CC(C)C)C(=O)N[C@@H](CCCCN)C(=O)N[C@@H](CCCCN)C(=O)N[C@@H](CC(C)C)C(=O)N[C@@H](CC(C)C)C(N)=O (stereo partly shown) [Feleucin-K65] (H-[ξαMeGly(pent-4-enyl)]LKLLKKLL-NH2)	8	8	8 (≈ 7.23 µM)	31.6%	16	32	8	16	8	8	8 (≈ 7.23 µM)	4 (≈ 3.61 µM)	4 (≈ 3.61 µM)	4 (≈ 3.61 µM)	4 (≈ 3.61 µM)	4 (≈ 3.61 µM)	8 (≈ 7.23 µM)	4 (≈ 3.61 µM)	4 (≈ 3.61 µM)	8 (≈ 7.23 µM)	hemolysis rate at 64 µg/mL (mouse RBCs; peptide 64 µg/mL): 9.08%; MBIC50, P.aeruginosa ATCC 27853 (P.aeruginosa ATCC 27853): 8 µg/mL; MBIC90, P.aeruginosa ATCC 27853 (P.aeruginosa ATCC 27853): 16 µg/mL; MIC, MRSA 74 (MRSA 74): 4 µg/mL (≈ 3.61 µM); MIC, MRSA 936 (MRSA 936): 4 µg/mL (≈ 3.61 µM); MIC, MRSA 75 (MRSA 75): 4 µg/mL (≈ 3.61 µM); MIC, S. aureus ATCC 25923 (S. aureus ATCC 25923 [5]): 8 µg/mL (≈ 7.23 µM); MIC, MRSA 51 (MRSA 51): 8 µg/mL (≈ 7.23 µM); MIC, MRSA ATCC 33591 (MRSA ATCC 33591 [6]): 4 µg/mL (≈ 3.61 µM); MIC, MRSA 71 (MRSA 71): 4 µg/mL (≈ 3.61 µM); MIC, S. aureus 794 (S. aureus 794): 8 µg/mL (≈ 7.23 µM); MIC, MRSA 23 (MRSA 23): 4 µg/mL (≈ 3.61 µM); MIC, MRSA 52 (MRSA 52): 4 µg/mL (≈ 3.61 µM); MIC, MRSA 54 (MRSA 54): 4 µg/mL (≈ 3.61 µM); MIC, S. aureus 725 (S. aureus 725): 4 µg/mL (≈ 3.61 µM); MIC, MRSA 113 (MRSA 113): 8 µg/mL (≈ 7.23 µM); MIC, MRSA 48 (MRSA 48): 4 µg/mL (≈ 3.61 µM)
C=CCCCC(C)(NC(=O)[C@H](CC(C)C)NC(=O)[C@H](CCCCN)NC(=O)[C@H](CCCCN)NC(=O)[C@H](CC(C)C)NC(=O)[C@H](CC(C)C)NC(=O)[C@H](CCCCN)NC(=O)[C@H](CC(C)C)NC(=O)[C@@H](N)Cc1ccccc1)C(N)=O (stereo partly shown) [Feleucin-K70] (H-FLKLLKKL[ξαMeGly(pent-4-enyl)]-NH2)	8	16	8 (≈ 7.01 µM)	less than 1%	8	32	4	8	4	8	16 (≈ 14 µM)	8 (≈ 7.01 µM)	8 (≈ 7.01 µM)	8 (≈ 7.01 µM)	8 (≈ 7.01 µM)	4 (≈ 3.51 µM)	8 (≈ 7.01 µM)	8 (≈ 7.01 µM)	8 (≈ 7.01 µM)	8 (≈ 7.01 µM)	MBIC50, P.aeruginosa ATCC 27853 (P.aeruginosa ATCC 27853): 8 µg/mL; MBIC90, P.aeruginosa ATCC 27853 (P.aeruginosa ATCC 27853): 16 µg/mL; MIC, MRSA 74 (MRSA 74): 8 µg/mL (≈ 7.01 µM); MIC, MRSA 936 (MRSA 936): 8 µg/mL (≈ 7.01 µM); MIC, MRSA 75 (MRSA 75): 8 µg/mL (≈ 7.01 µM); MIC, S. aureus ATCC 25923 (S. aureus ATCC 25923 [5]): 8 µg/mL (≈ 7.01 µM); MIC, MRSA 51 (MRSA 51): 8 µg/mL (≈ 7.01 µM); MIC, MRSA ATCC 33591 (MRSA ATCC 33591 [6]): 8 µg/mL (≈ 7.01 µM); MIC, MRSA 71 (MRSA 71): 8 µg/mL (≈ 7.01 µM); MIC, S. aureus 794 (S. aureus 794): 8 µg/mL (≈ 7.01 µM); MIC, MRSA 23 (MRSA 23): 8 µg/mL (≈ 7.01 µM); MIC, MRSA 52 (MRSA 52): 8 µg/mL (≈ 7.01 µM); MIC, MRSA 54 (MRSA 54): 8 µg/mL (≈ 7.01 µM); MIC, S. aureus 725 (S. aureus 725): 8 µg/mL (≈ 7.01 µM); MIC, MRSA 113 (MRSA 113): 8 µg/mL (≈ 7.01 µM); MIC, MRSA 48 (MRSA 48): 8 µg/mL (≈ 7.01 µM)
